The values that follow come from patent publication US20240217960A1, “TRIAZINE DERIVATIVE AS COVALENT INHIBITORS OF PI3K” (UNIVERSITÄT BASEL, priority 2021, published 2024).

Where two headings read alike, the source gives them in different places. Where only a bound is given, the exact number is not on record here.

Assay [1] deals with pSer473 of PKB/Akt in SKOV3 cells. The experiment in a line: In Cell Western cellular PI3K signaling and IC50 determination. The conditions noted are these: Homo sapiens, SK-OV-3; SKOV3 cells; 2 or 3 independent measurements; read-out: IC50 pPKB (S473) SKOV3. It is filed as cell-based. As to the method: Protein phosphorylation was detected as follows: pSer473 of PKB/Akt with rabbit polyclonal antibody from Cell Signaling Technology (CST) (#4058) by In-Cell Western assays, where 1.2×10^4 SKOV3 cells/well in 96-well plates were plated (Cell Carrier, PerkinElmer) for 24 hours (37° C., 5% CO2), as described in Ref. ^25.

A short description of assay [2]: Intrinsic reactivity of the inhibitors (kchem) with βME measured with HPLC. It is filed as physicochemical. Conditions: 1 mM inhibitor + 600 mM βME, n = 3.
The target in a further assay is p110α (PI3Kα) (Homo sapiens, UniProt P42336). The experiment in a line: Determination of kinetic constants (kinact, Ki) for p110α by LanthaScreen Technology. It is filed as binding. The conditions noted are these: for kinact: maximum potential rate of covalent bond formation, read-out: kinact PI3Kα; for kinact/KI: read-out: kinact/Ki PI3Kα.
Chain of p110α (PI3Kα) (P42336 whole entry): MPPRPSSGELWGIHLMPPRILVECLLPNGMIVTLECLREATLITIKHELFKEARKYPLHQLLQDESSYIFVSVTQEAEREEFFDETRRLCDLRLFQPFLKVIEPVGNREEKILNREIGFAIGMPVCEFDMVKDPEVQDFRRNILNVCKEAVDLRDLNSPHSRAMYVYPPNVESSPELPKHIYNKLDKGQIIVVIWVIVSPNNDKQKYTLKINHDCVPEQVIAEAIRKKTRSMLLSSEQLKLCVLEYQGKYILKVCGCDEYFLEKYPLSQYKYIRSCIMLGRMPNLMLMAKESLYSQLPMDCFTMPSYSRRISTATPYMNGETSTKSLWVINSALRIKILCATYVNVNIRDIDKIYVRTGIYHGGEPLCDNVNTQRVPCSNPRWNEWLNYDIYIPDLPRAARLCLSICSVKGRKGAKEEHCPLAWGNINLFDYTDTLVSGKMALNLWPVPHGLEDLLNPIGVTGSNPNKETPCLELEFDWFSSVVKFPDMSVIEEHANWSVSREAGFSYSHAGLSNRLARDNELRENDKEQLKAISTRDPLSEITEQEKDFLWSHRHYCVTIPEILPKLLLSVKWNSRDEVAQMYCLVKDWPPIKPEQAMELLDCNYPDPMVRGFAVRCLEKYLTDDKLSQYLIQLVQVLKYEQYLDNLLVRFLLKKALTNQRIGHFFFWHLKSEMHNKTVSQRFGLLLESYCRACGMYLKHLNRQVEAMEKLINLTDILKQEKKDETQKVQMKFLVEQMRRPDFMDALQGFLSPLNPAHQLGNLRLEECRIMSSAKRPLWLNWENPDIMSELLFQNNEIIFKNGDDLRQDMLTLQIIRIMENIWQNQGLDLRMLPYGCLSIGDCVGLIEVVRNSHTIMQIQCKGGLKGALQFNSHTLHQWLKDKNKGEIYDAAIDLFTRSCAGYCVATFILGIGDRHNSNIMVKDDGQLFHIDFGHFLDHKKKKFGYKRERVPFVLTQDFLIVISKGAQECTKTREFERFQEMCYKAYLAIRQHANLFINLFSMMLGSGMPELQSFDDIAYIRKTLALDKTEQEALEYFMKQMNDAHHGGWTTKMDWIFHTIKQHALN
Chain of p110α (PI3Kα) (P27986 whole entry partner): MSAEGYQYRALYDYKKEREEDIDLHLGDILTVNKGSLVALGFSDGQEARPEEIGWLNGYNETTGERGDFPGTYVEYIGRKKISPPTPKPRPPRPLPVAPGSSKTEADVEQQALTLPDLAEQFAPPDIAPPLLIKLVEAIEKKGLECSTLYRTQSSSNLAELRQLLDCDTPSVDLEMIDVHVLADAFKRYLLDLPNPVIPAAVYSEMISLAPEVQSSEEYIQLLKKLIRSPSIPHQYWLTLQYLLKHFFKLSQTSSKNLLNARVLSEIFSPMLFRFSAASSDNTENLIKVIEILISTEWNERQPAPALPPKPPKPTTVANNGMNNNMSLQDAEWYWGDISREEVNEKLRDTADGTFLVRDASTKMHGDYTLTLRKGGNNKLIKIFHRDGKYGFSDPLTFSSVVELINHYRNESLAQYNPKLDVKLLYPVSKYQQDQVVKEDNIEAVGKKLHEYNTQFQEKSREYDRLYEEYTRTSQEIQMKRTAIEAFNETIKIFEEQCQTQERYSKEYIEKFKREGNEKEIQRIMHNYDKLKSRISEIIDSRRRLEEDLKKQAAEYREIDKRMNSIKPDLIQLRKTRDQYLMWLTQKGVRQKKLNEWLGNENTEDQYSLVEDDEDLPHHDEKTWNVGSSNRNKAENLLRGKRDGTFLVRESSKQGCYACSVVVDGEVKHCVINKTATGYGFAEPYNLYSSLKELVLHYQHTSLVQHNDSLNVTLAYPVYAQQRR
Setting [3] is: dissociation constant of the first reversible binding, global fitting with KinTek, read-out: Ki PI3Kα.

Method for p110α (PI3Kα): Maximum potential rate of covalent bond formation (kinact) and dissociation constant of the first reversible binding (Ki) of compounds for p110α were determined by LanthaScreen Technology (Life Technologies). The calculation of kinetic parameters was carried out through global fitting for numerical integration by using KinTek Global Kinetic Explorer modelling software^26-31.

As usually defined, the IC50 is the concentration needed to halve the response being measured. `CC(C)=CC(=O)CCCC(=O)N1CC(CN2CCN(c3nc(-c4cnc(N)nc4C(F)F)nc(N4CCOCC4)n3)CC2)C1` [Compound 97, 1-(3-((4-(4-(2-amino-4-(difluoromethyl)pyrimidin-5-yl)-6-morpholino-1,3,5-triazin-2-yl)piperazin-1-yl)methyl)azetidin-1-yl)-7-methyloct-6-ene-1,5-dione]: the IC50 in assay [1] came out at 17 nM.
With `CC(C)=CC(=O)CCC(=O)N1CC(C(=O)N2CCN(c3nc(-c4cnc(N)nc4C(F)F)nc(N4CCOCC4)n3)CC2)C1` [Compound 92, 1-(3-(4-(4-(2-amino-4-(difluoromethyl)pyrimidin-5-yl)-6-morpholino-1,3,5-triazin-2-yl)piperazine-1-carbonyl)azetidin-1-yl)-6-methylhept-5-ene-1,4-dione], the IC50 in assay [1] worked out at 34 nM.
Same read-out and setting: the figure for `CC(C)=CC(=O)CCC(=O)N1CC[C@H](C(=O)N2CCN(c3nc(-c4cnc(N)nc4C(F)F)nc(N4CCOCC4)n3)CC2)C1` [Compound 81, (S)-1-(3-(4-(4-(2-amino-4-(difluoromethyl)pyrimidin-5-yl)-6-morpholino-1,3,5-triazin-2-yl)piperazine-1-carbonyl)pyrrolidin-1-yl)-6-methylhept-5-ene-1,4-dione] is 24 nM.
What is called Ki is the dissociation constant of the complex between target and ligand, obtained from inhibition or displacement. For the molecule `CC(C)=CC(=O)N(C)CCCC(=O)N1CCN(c2nc(-c3cnc(N)nc3C(F)F)nc(N3CCOCC3)n2)CC1` [Compound 11, N-(4-(4-(4-(2-amino-4-(difluoromethyl)pyrimidin-5-yl)-6-morpholino-1,3,5-triazin-2-yl)piperazin-1-yl)-4-oxobutyl)-N,3-dimethylbut-2-enamide], the “kchem (intrinsic reactivity of the inhibitors)” value in assay [2] is recorded as <<1.00 × 10^−7 M^−1 · s^−1. The inhibitory constant (Ki) on p110α (PI3Kα) (Ki value determined after 60 min of drug incubation with PI3Kα, 2 independent measurements, read-out: Ki PI3Kα (footnote d)) was found to be 6.95 nM.
Take `CC(C)=CC(=O)CCCC(=O)N1CC[C@H](C(=O)N2CCN(c3nc(-c4cnc(N)nc4C(F)F)nc(N4CCOCC4)n3)CC2)C1` [Compound 84, (S)-1-(3-(4-(4-(2-amino-4-(difluoromethyl)pyrimidin-5-yl)-6-morpholino-1,3,5-triazin-2-yl)piperazine-1-carbonyl)pyrrolidin-1-yl)-7-methyloct-6-ene-1,5-dione]: in assay [1], the IC50 was found to be 11 nM.
`CC(C)=CC(=O)CCC(=O)N1CC(CN2CCN(c3nc(-c4cnc(N)nc4C(F)F)nc(N4CCOCC4)n3)CC2)C1` [Compound 95, 1-(3-((4-(4-(2-amino-4-(difluoromethyl)pyrimidin-5-yl)-6-morpholino-1,3,5-triazin-2-yl)piperazin-1-yl)methyl)azetidin-1-yl)-6-methylhept-5-ene-1,4-dione]: the IC50 in assay [1] was 33 nM.
A word on the kinact: it is the rate constant of inactivation at saturating inhibitor. For `C=CC(=O)CCCCC(=O)N1CCN(c2nc(-c3cnc(N)nc3C(F)F)nc(N3CCOCC3)n2)CC1` [Compound 1, 1-(4-(4-(2-amino-4-(difluoromethyl)pyrimidin-5-yl)-6-morpholino-1,3,5-triazin-2-yl)piperazin-1-yl)oct-7-ene-1,6-dione], the “kchem (intrinsic reactivity of the inhibitors)” value in assay [2] is listed as >>1.00 × 10^−1 M^−1 · s^−1. At p110α (PI3Kα) (setting [3]), the Ki came to 5.87 nM. In addition, on p110α (PI3Kα) (global fitting with KinTek), the kinact is 0.0245 s⁻¹. Further, at p110α (PI3Kα), the kinact/KI was 4.2e+06 M⁻¹ s⁻¹.
For the molecule `CC(C)=CC(=O)CCC(=O)N1CC[C@@H](C(=O)N2CCN(c3nc(-c4cnc(N)nc4C(F)F)nc(N4CCOCC4)n3)CC2)C1` [Compound 86, (R)-1-(3-(4-(4-(2-amino-4-(difluoromethyl)pyrimidin-5-yl)-6-morpholino-1,3,5-triazin-2-yl)piperazine-1-carbonyl)pyrrolidin-1-yl)-6-methylhept-5-ene-1,4-dione], in assay [1], the IC50 worked out at 17 nM.
The same measure, in the same setting: the figure for `CC(C)CC(=O)CCCC(=O)N1CCC(C(=O)N2CCN(c3nc(-c4cnc(N)nc4C(F)F)nc(N4CCOCC4)n3)CC2)CC1` [Compound 70, 1-(4-(4-(4-(2-amino-4-(difluoromethyl)pyrimidin-5-yl)-6-morpholino-1,3,5-triazin-2-yl)piperazine-1-carbonyl)piperidin-1-yl)-7-methyloctane-1,5-dione] is 63 nM.
On to `CCC(=O)N1CCC(C(=O)NCC(=O)N2CCN(c3nc(-c4cnc(N)nc4C(F)F)nc(N4CCOCC4)n3)CC2)CC1` [Compound 44, N-(2-(4-(4-(2-amino-4-(difluoromethyl)pyrimidin-5-yl)-6-morpholino-1,3,5-triazin-2-yl)piperazin-1-yl)-2-oxoethyl)-1-propionylpiperidine-4-carboxamide], for which, on p110α (PI3Kα) (setting [3]), the Ki amounted to 2.55 nM. The IC50 in assay [1] was 200 nM.
As for `CC(C)=CC(=O)CCCC(=O)N1CC[C@H](C(=O)N2CCN(c3nc(-c4cnc(N)cc4C(F)(F)F)nc(N4CCOCC4)n3)CC2)C1` [Compound 85, (S)-1-(3-(4-(4-(6-amino-4-(trifluoromethyl)pyridin-3-yl)-6-morpholino-1,3,5-triazin-2-yl)piperazine-1-carbonyl)pyrrolidin-1-yl)-7-methyloct-6-ene-1,5-dione], the half-inhibitory concentration (IC50) in assay [1] turned out to be 73 nM.
As to `CC(C)=CC(=O)CCCC(=O)N1CCC(C(=O)N2CCN(c3nc(-c4cnc(N)cc4C(F)(F)F)nc(N4CCOCC4)n3)CC2)CC1` [Compound 71, 1-(4-(4-(4-(6-amino-4-(trifluoromethyl)pyridin-3-yl)-6-morpholino-1,3,5-triazin-2-yl)piperazine-1-carbonyl)piperidin-1-yl)-7-methyloct-6-ene-1,5-dione], the IC50 in assay [1] is 112 nM.
In the case of `CC(C)=CC(=O)NCCCC(=O)N1CCN(c2nc(-c3cnc(N)nc3C(F)F)nc(N3CCOCC3)n2)CC1` [Compound 17, N-(4-(4-(4-(2-amino-4-(difluoromethyl)pyrimidin-5-yl)-6-morpholino-1,3,5-triazin-2-yl)piperazin-1-yl)-4-oxobutyl)-3-methylbut-2-enamide], the “kchem (intrinsic reactivity of the inhibitors)” value in assay [2] was <<1.00 × 10^−7 M^−1 · s^−1.
Consider `CC(C)=CC(=O)CCCC(=O)N1CC[C@@H](C(=O)N2CCN(c3nc(-c4cnc(N)cc4C(F)(F)F)nc(N4CCOCC4)n3)CC2)C1` [Compound 90, (R)-1-(3-(4-(4-(6-amino-4-(trifluoromethyl)pyridin-3-yl)-6-morpholino-1,3,5-triazin-2-yl)piperazine-1-carbonyl)pyrrolidin-1-yl)-7-methyloct-6-ene-1,5-dione], for which the IC50 in assay [1] stood at 93 nM.
The same measure, in the same setting: the figure for `CN(C)C/C=C/C(=O)N1CCC(C(=O)N(C)CC(=O)N2CCN(c3nc(-c4cnc(N)nc4C(F)F)nc(N4CCOCC4)n3)CC2)CC1` [Compound 56, (E)-N-(2-(4-(4-(2-amino-4-(difluoromethyl)pyrimidin-5-yl)-6-morpholino-1,3,5-triazin-2-yl)piperazin-1-yl)-2-oxoethyl)-1-(4-(dimethylamino)but-2-enoyl)-N-methylpiperidine-4-carboxamide] is 891 nM.
Turning to `N#C/C(=C/C1CC1)C(=O)N1CCC(COCC(=O)N2CCN(c3nc(-c4cnc(N)nc4C(F)F)nc(N4CCOCC4)n3)CC2)CC1` [Compound 118, (Z)-2-(4-((2-(4-(4-(2-amino-4-(difluoromethyl)pyrimidin-5-yl)-6-morpholino-1,3,5-triazin-2-yl)piperazin-1-yl)-2-oxoethoxy)methyl)piperidine-1-carbonyl)-3-cyclopropylacrylonitrile], the inhibition constant Ki at p110α (PI3Kα) (setting [3]) worked out at 1 nM. At p110α (PI3Kα) (global fitting with KinTek), the kinact was 0.0108 s⁻¹. Further, the kinact/KI at p110α (PI3Kα) stood at 1.08e+07 M⁻¹ s⁻¹. For the same molecule, the IC50 in assay [1] was determined as 5.96 nM.
On to `CC(C)=CC(=O)CCCC(=O)N1CCC(C(=O)N2CCN(c3nc(-c4cnc(N)nc4C(F)F)nc(N4CCOCC4)n3)CC2)CC1` [Compound 69, 1-(4-(4-(4-(2-amino-4-(difluoromethyl)pyrimidin-5-yl)-6-morpholino-1,3,5-triazin-2-yl)piperazine-1-carbonyl)piperidin-1-yl)-7-methyloct-6-ene-1,5-dione], for which, in assay [1], the half-inhibitory concentration (IC50) was 31 nM.
As for `CC(C)=CC(=O)CCCC(=O)N1CC(C(=O)N2CCN(c3nc(-c4cnc(N)nc4C(F)F)nc(N4CCOCC4)n3)CC2)C1` [Compound 94, 1-(3-(4-(4-(2-amino-4-(difluoromethyl)pyrimidin-5-yl)-6-morpholino-1,3,5-triazin-2-yl)piperazine-1-carbonyl)azetidin-1-yl)-7-methyloct-6-ene-1,5-dione], the IC50 in assay [1] is 12 nM.
Regarding `CC(C)=CC(=O)CCCC(=O)N1CC[C@@H](C(=O)N2CCN(c3nc(-c4cnc(N)nc4C(F)F)nc(N4CCOCC4)n3)CC2)C1` [Compound 89, (R)-1-(3-(4-(4-(2-amino-4-(difluoromethyl)pyrimidin-5-yl)-6-morpholino-1,3,5-triazin-2-yl)piperazine-1-carbonyl)pyrrolidin-1-yl)-7-methyloct-6-ene-1,5-dione], in assay [1], the half-inhibitory concentration (IC50) was found to be 6.7 nM.
With `CC(C)=CC(=O)CCC(=O)N1CCC(CN2CCN(c3nc(-c4cnc(N)nc4C(F)F)nc(N4CCOCC4)n3)CC2)CC1` [Compound 72, 1-(4-((4-(4-(2-amino-4-(difluoromethyl)pyrimidin-5-yl)-6-morpholino-1,3,5-triazin-2-yl)piperazin-1-yl)methyl)piperidin-1-yl)-6-methylhept-5-ene-1,4-dione], the IC50 in assay [1] came to 46 nM.
In the case of `CC(C)=CC(=O)CCCC(=O)N1CCC(CN2CCN(c3nc(-c4cnc(N)cc4C(F)(F)F)nc(N4CCOCC4)n3)CC2)CC1` [Compound 78, 1-(4-((4-(4-(6-amino-4-(trifluoromethyl)pyridin-3-yl)-6-morpholino-1,3,5-triazin-2-yl)piperazin-1-yl)methyl)piperidin-1-yl)-7-methyloct-6-ene-1,5-dione], the half-maximal inhibitory concentration (IC50) in assay [1] amounted to 177 nM.
